# Assays:
# [1] = Oxygen scavenging efficacy at elevated temperature and pressure in hot water flow system (Example 1, TABLE 1); settings: for % O2 Removed: 78°±3°C, 4±1 psig, contact 4±0.2 min, feedwater concentration, pH and initial O2 (ppm) vary by line of TABLE 1, values below 20% may be experimental artifacts; for oxygen scavenging (in words): test water, TABLE 1
# Method: In a first series of tests, the oxygen scavenging efficacies of various materials were evaluated under conditions of elevated temperature and pressure. The test apparatus used was essentially a stainless steel hot water flow system equipped with appropriate monitoring instrumentation. Demineralized feedwater, adjusted to the appropriate pH and initial dissolved oxygen level (controlled by nitrogen sparging), was pumped from a reservoir at ambient temperature into a once-through heater. Temperature was monitored continuously by means of thermocouples at several locations along the length of the flow tubing. A solution containing the oxygen scavenger test material was loaded into a pump driven syringe and fed continuously to the heated flow stream through a port containing a stainless steel ribbon mixing baffle. The feedwater containing dissolved oxygen and the test material then traversed the flow tubing via a by-pass comprising an additional length of coiled tubing. Contact (or reaction) time of the test material and dissolved oxygen was governed by the choice of coil length. The tendency of the temperature to drop during residence in the coiled tubing was offset by the use of thermostatted heating tapes which maintained the temperature in this tubing at 78°±3°C. Upon exiting the coiled tubing, the stream flowed through a sample cooler to render the temperature of the liquid compatible with the operating range of a membrane-type dissolved oxygen probe. The cooled liquid was analyzed for dissolved oxygen via a D.O. flow cell, and pH was potentiometrically monitored in the flow tube immediately downstream of the D.O. probe. Outputs of the temperature, pH and dissolved oxygen probes during operation were monitored via strip chart recorders. The final destination of the reaction mixture was a reservoir which could be drained for analysis of reaction products, if desired.
# Temperature in the system could be maintained at 78°±3° C. under 4±1 psig. Residence time of the feedwater in the flow tube from chemical feed point to D.O. flow cell outlet was 4±0.2 minutes. […] Entry into and residence in the sample cooler accounted for 0.5 minute of the total contact time. […]
# The test solutions were prepared by initially mixing 10 grams of test material and 90 grams of demineralized water in glass bottles and allowing the mixture to remain in a shaker for several hours. If complete dissolution for a given material was observed after shaking, the pH of the solution was measured. When the pH of the solution was below 10.0, 7N sodium hydroxide was added dropwise until this value was reached. The quantity of added sodium hydroxide was recorded and later used in corrections for the active concentration of the solution. When the pH value of a stock solution was above pH 10.0 without requiring the addition of caustic, the solution was not further modified.
# Results of these tests are reported in TABLE 1 below in terms of percent oxygen removed from the test stream. The precision of the initial and final dissolved oxygen values reported is approximately ±10%. […] The experimental uncertainties decrease with increasing values of percent dissolved oxygen removal.
# [2] = Low (room) temperature reactivity with oxygen (Example 4, TABLE 5); settings: mole ratio of treatment to O2 and initial O2 by line of TABLE 5; for % O2 Removed, 1 Minute: room temperature 22.5-26.5 °C, pH 8.6-10.0; for % O2 Removed, 5 Minutes: room temperature 24.0-26.5 °C, pH 9.1-10.0
# From the text: In a further series of tests, the low (room) temperature reactivities with oxygen of various dioxo compounds were compared to that of hydrazine. The test apparatus basically consisted of a 1 liter three-necked flask fitted with a dissolved oxygen probe and a pH electrode. The intent of this apparatus was to show reaction kinetics differences rather than precise measurements (within seconds) of reaction times.
# The flask was filled with deionized water which had been stripped of some dissolved oxygen by bubbling nitrogen through a diffuser stone. The pH was adjusted to the desired level with sodium hydroxide. The flask was sealed with a rubber septum, the dissolved oxygen probe and an inlet stopper. A magnetic stirrer bar was left in the flask for mixing. The mixer was turned on, and dissolved oxygen and temperature readings were recorded until the dissolved oxygen reached a constant value. Next, the appropriate quantity of additive was injected through the septum using a hypodermic syringe. The initial mole ratio of treatment to dissolved oxygen was determined by weighing feed chemical and measuring the oxygen concentration. […] Dissolved oxygen and temperature readings were then taken at appropriate time intervals.
# The results of these tests are provided below in TABLE 5 in terms of relative amounts of % oxygen removed at the time intervals indicated (1 and 5 minutes).
# [3] = system: test rats; settings: NIOSH Registry of Toxic Effects of Chemical Substances (1976); cited from earlier work
# [4] = Oxygen scavenging in feedwater of a working boiler, field-type conditions (Example 2, TABLES 2 and 3); settings: TABLE 2, actives 1.0-2.2 ppm, pH 8.7-9.4, steam load 11 or 15 (1000 lbs./hr.), initial O2 3.8-8 ppb by line
# [5] = to nitrogen, hydrogen and ammonia; cited from earlier work
# [6] = Thermal decomposition studies of aqueous solutions in autoclaves (Example 5, TABLE 6); settings: hydrazine 60 ppm, 4 hours
structure (smiles),measurement,setting,value
Oc1ccc(-c2ccccc2)cc1 [p-phenylphenol],% O2 Removed,[1],40%
COc1ccc(O)cc1 [p-methoxyphenol],% O2 Removed,[1],40%
"O=Cc1ccc(O)cc1O [2,4-dihydroxybenzaldehyde]",% O2 Removed,[1],14%
same,oxygen scavenging (in words),[1],ineffective
Cc1ccccc1O [o-cresol],% O2 Removed,[1],17%
Oc1ccccc1O [catechol],% O2 Removed,[1],96%
same,"% O2 Removed, 1 Minute",[2],7%
same,"% O2 Removed, 5 Minutes",[2],30%
same,LD50 Oral Rat,[3],3890 mg/kg
same,% O2 Removed,[4],75%
"O=C1C=CC(=O)c2ccccc21 [1,4-naphthoquinone]",% O2 Removed,[1],99%
same,% O2 Removed,[4],88%
Oc1ccc(O)cc1 [hydroquinone],LD50 Oral Rat,[3],320 mg/kg
O=[N+]([O-])c1ccccc1O [2-nitrophenol],% O2 Removed,[1],0%
O=C(O)c1ccc(O)cc1 [p-hydroxybenzoic acid],% O2 Removed,[1],13%
NN [hydrazine],temperature above which it decomposes,[5],Above 400 ° F.
same,LD50 Oral Rat,[3],60 mg/kg
same,% Decomposition,"[6]; 0 psig, 70 °F.",0%
same,% Decomposition,"[6]; 1100 psig, 550 °F.",52%
same,% Decomposition,"[6]; 1620 psig, 600 °F.",79%
same,% Decomposition,"[6]; 2000 psig, 636 °F.",93%
"O=Cc1ccc(O)c(O)c1 [3,4-dihydroxybenzaldehyde]",% O2 Removed,[1],73 ± 2%
Nc1ccccc1N [o-phenylenediamine],oxygen scavenging (in words),[1],ineffective
"O=Cc1cc(O)ccc1O [2,5-dihydroxybenzaldehyde]",% O2 Removed,[1],98%
O=C1C=CC(=O)C=C1 [benzoquinone],% O2 Removed,[1],96%
same,oxygen scavenging (in words),[1],quite efficacious as an oxygen scavenger
same,"% O2 Removed, 1 Minute",[2],76%
same,"% O2 Removed, 5 Minutes",[2],90%
same,% O2 Removed,[4],57%
Oc1cccc(O)c1 [resorcinol],oxygen scavenging (in words),[1],ineffective
Nc1ccc(N)cc1 [p-phenylenediamine],oxygen scavenging (in words),[1],ineffective
CC(C)(C)c1ccc(O)c(O)c1 [4-tert-butylcatechol],% O2 Removed,[1],97%
same,LD50 Oral Rat,[3],2820 mg/kg
same,% O2 Removed,[4],37%

# Source: US5147604A, “Dioxo-aromatic compounds as oxygen scavengers” (Betz Laboratories, Inc., priority 1988, dated 1992)
